In patent US9708306B2, “Benzimidazole derivatives and preparation process and pharmaceutical uses thereof” (WUHAN LL SCIENCE AND TECHNOLOGY DEVELOPMENT CO., LTD, priority 2015, dated 2017):
Values joined by “and” are separate entries in the source; they are usually repeats but may differ in a detail not shown here. Equal values may be shown once.

How the values were obtained:
normal rats = assay: Effect on blood pressure of normal rats by single oral administration; type: in vivo, Wistar rats; details: for inhibition in vivo at 0.5 mg/kg / inhibition in vivo at 1 mg/kg / inhibition in vivo at 2 mg/kg / change in vivo at 0.5 mg/kg / change in vivo at 1 mg/kg / change in vivo at 2 mg/kg: Rattus norvegicus, po, single, normal rats; for inhibition in vivo at 0.5 mg/kg / inhibition in vivo at 1 mg/kg / inhibition in vivo at 2 mg/kg: 8 h, read-out: blood pressure reduction at 8 h after the administration; for inhibition in vivo at 0.5 mg/kg / change in vivo at 0.5 mg/kg: 0.5 mg/kg p.o.; for inhibition in vivo at 1 mg/kg / change in vivo at 1 mg/kg: 1.0 mg/kg p.o.; for inhibition in vivo at 2 mg/kg / change in vivo at 2 mg/kg: 2.0 mg/kg p.o.; for change in vivo at 0.5 mg/kg / change in vivo at 1 mg/kg / change in vivo at 2 mg/kg: read-out: variations on heart rate
[1] = test system: renovascular hypertensive rats; assay: Effect on reducing blood pressure of renovascular hypertensive rats by single oral administration; type: in vivo, Wistar rats; details: for change in vivo at 0.5 mg/kg / inhibition in vivo at 0.5 mg/kg / change in vivo at 1 mg/kg / inhibition in vivo at 1 mg/kg / change in vivo at 2 mg/kg / inhibition in vivo at 2 mg/kg: Rattus norvegicus, single oral administration; for change in vivo at 0.5 mg/kg / change in vivo at 1 mg/kg / change in vivo at 2 mg/kg: RHR, read-out: Variations on heart rate; for inhibition in vivo at 0.5 mg/kg / inhibition in vivo at 1 mg/kg / inhibition in vivo at 2 mg/kg: two-kidney one-clip RHR, measured 1-10 h, read-out: Maximum blood pressure reduction

| Compound | inhibition in vivo at 0.5 mg/kg (normal rats) | inhibition in vivo at 1 mg/kg (normal rats) | inhibition in vivo at 2 mg/kg (normal rats) | change in vivo at 0.5 mg/kg (normal rats) | change in vivo at 1 mg/kg (normal rats) | change in vivo at 2 mg/kg (normal rats) | change in vivo at 0.5 mg/kg [1] | inhibition in vivo at 0.5 mg/kg [1] | change in vivo at 1 mg/kg [1] | inhibition in vivo at 1 mg/kg [1] | change in vivo at 2 mg/kg [1] | inhibition in vivo at 2 mg/kg [1] | blood pressure reduction effect compared with Azilsartan medoxomil ([1]; renal artery-ligated rat, result in words) | blood pressure reduction at 8 h after the administration (normal rats; rat, in vivo) | Maximum blood pressure reduction ([1]; rat, in vivo) | Variations on heart rate ([1]; rat, in vivo) |
| --- | --- | --- | --- | --- | --- | --- | --- | --- | --- | --- | --- | --- | --- | --- | --- | --- |
| CCOc1nc2cccc(C(=O)OC(OC(=O)OCc3nc(C)c(C)nc3C)C(C)(C)C)c2n1Cc1ccc(-c2ccccc2-c2noc(=O)[nH]2)cc1 (stereo not shown) [QR01028] | 1.7 ± 5.3% | 3.9 ± 5.2% | 2.5 ± 4.6% | -4 ± 3% | -3 ± 4% | -2 ± 3% | -6 ± 2% | 15 ± 0.9% | -6 ± 4% | 18 ± 4.2% | -12 ± 5% | 25 ± 3.6% | – | – | – | – |
| CCOc1nc2cccc(C(=O)OCOC(=O)OC(C)C)c2n1Cc1ccc(-c2ccccc2-c2noc(=O)[nH]2)cc1 [QR01002] | 5.6 ± 2.3% | 6.4 ± 2.1% | 6.4 ± 2.1% | -4 ± 5% | -5 ± 4% | 5% | -5 ± 4% | 12 ± 2.4% | -8 ± 3% | 15 ± 1.8% | -6 ± 4% | 19 ± 4.2% | – | – | – | – |
| CCOc1nc2cccc(C(=O)ONC(=N)Nc3ccccc3)c2n1Cc1ccc(-c2ccccc2-c2noc(=O)[nH]2)cc1 [QR01012] | 1.9 ± 3.2% | 3.9 ± 2.1% | 4.6 ± 2.4% | 1% | -3 ± 2% | -3 ± 4% | 2% | 17 ± 3.7% | -3 ± 4% | 22 ± 1% | -5 ± 2% | 27 ± 2.8% | – | – | – | – |
| CCOc1nc2cccc(C(=O)OC(C)OC(=O)OCc3ccn(C)c3)c2n1Cc1ccc(-c2ccccc2-c2noc(=O)[nH]2)cc1 (stereo not shown) [QR01033] | 2.3 ± 3.2% | 6.4 ± 2.9% | 4.2 ± 5% | -3 ± 4% | -5 ± 3% | -1 ± 7% | -8 ± 2% | 19 ± 2.1% | -15 ± 6% | 26 ± 3.7% | -19 ± 7% | 32 ± 4% | – | – | – | – |
| CCOc1nc2cccc(C(=O)OC3CCc4c3no[n+]4[O-])c2n1Cc1ccc(-c2ccccc2-c2noc(=O)[nH]2)cc1 (stereo not shown) [QR01035] | 6.4 ± 2.1% | 3.4 ± 2.5% | 6.1 ± 3.8% | -4 ± 3% | -3 ± 3% | 6% | -14 ± 6% | 20 ± 3.1% | -23 ± 6% | 28 ± 4.5% | -26 ± 5% | 36 ± 4.6% | close to that of Azilsartan medoxomil | – | – | – |
| CCOc1nc2cccc(C(=O)Oc3ccc(OCc4c(-c5ccccc5)no[n+]4[O-])cc3)c2n1Cc1ccc(-c2ccccc2-c2noc(=O)[nH]2)cc1 [QR01010] | 2.1 ± 3.2% | 4.6 ± 4.7% | 5.7 ± 2.3% | 5% | -5 ± 1% | -4 ± 5% | 5% | 21 ± 4.7% | -3 ± 1% | 26 ± 5.4% | -5 ± 3% | 30 ± 3.6% | – | – | – | – |
| CCOc1nc2cccc(C(=O)OCc3c(C)no[n+]3[O-])c2n1Cc1ccc(-c2ccccc2-c2noc(=O)[nH]2)cc1 [QR01025] | 3.3 ± 3.2% | 6.2 ± 3.8% | 3.7 ± 4.1% | -2 ± 3% | 6% | -3 ± 4% | 4 ± 6% | 18 ± 3.4% | -7 ± 5% | 22 ± 4.5% | -7 ± 3% | 28 ± 3.2% | – | – | – | – |
| 1-(6-methypyridazine-2-methoxy-carbonyloxy)ethyl-2-ethoxy-1-{[2′-(5-oxo-4,5-dihydro-1,2,4-oxadiazole)-3-yl)biphenyl-4-yl]methyl}-1H-benzimidazole-7-carboxylate [QR01029] | – | – | – | – | – | – | – | – | – | – | – | – | – | 4.2 ± 3.2% and 5.8 ± 2.2% and 3.4 ± 4.8% | 12 ± 2.1% and 15 ± 4.3% and 24 ± 5.2% | −4 ± 3% and −5 ± 2% and −8 ± 2% |
